# Results reported in patent US10259810B2, “N-sulfonylated pyrazolo[3,4-b]pyridin-6-carboxamides and method of use” (AbbVie S.à.r.l., priority 2015, dated 2019).
# Experiments:
# ΔF508-CFTR [1] = biological target: T1, ΔF508-CFTR (Homo sapiens, UniProt P13569, DEL508-508); test: CFTR cell surface levels using HRP-tagged ΔF508-CFTR expressing CFBE cells, in the presence of a co-corrector; type: cell-based
# T1 construct: host or cells: CFBE41o-, doxycycline-inducible
# Summary of the method: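 Chemiluminescent read-out of surface HRP (15 min, dark) after PBS washes. Activity is normalized as 100×(sample−DMSO)/(3 μM co-corrector alone−DMSO).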
# ΔF508-CFTR [2] = biological target: T1, ΔF508-CFTR; test: CFTR cell surface levels using HRP-tagged ΔF508-CFTR expressing CFBE cells, intrinsic corrector capacity; type: cell-based; set-up: % Activation: concentration or dose not given beside the values
# Summary of the method: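 Read-out: chemiluminescent HRP activity of ECL4-HRP-tagged ΔF508-CFTR at the cell surface, 15 min substrate in dark. Normalized as 100×(sample−DMSO)/(positive control−DMSO).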
# [3] = HRP-tagged ΔF508-CFTR CFBE cells, in the presence of 3 μM co-corrector
# [4] = HRP-tagged ΔF508-CFTR CFBE cells, in the presence of 3 μM co-corrector, read-out: EC50
# [5] = HRP-tagged ΔF508-CFTR expressing CFBE41o- cells, compound alone (intrinsic corrector capacity), 20 hours at 33° C.
# [6] = HRP-tagged ΔF508-CFTR expressing CFBE41o- cells, compound alone (intrinsic corrector capacity), 20 hours at 33° C., read-out: EC50
# T1 sequence (P13569 with tags, fused parts or gaps DEL508-508): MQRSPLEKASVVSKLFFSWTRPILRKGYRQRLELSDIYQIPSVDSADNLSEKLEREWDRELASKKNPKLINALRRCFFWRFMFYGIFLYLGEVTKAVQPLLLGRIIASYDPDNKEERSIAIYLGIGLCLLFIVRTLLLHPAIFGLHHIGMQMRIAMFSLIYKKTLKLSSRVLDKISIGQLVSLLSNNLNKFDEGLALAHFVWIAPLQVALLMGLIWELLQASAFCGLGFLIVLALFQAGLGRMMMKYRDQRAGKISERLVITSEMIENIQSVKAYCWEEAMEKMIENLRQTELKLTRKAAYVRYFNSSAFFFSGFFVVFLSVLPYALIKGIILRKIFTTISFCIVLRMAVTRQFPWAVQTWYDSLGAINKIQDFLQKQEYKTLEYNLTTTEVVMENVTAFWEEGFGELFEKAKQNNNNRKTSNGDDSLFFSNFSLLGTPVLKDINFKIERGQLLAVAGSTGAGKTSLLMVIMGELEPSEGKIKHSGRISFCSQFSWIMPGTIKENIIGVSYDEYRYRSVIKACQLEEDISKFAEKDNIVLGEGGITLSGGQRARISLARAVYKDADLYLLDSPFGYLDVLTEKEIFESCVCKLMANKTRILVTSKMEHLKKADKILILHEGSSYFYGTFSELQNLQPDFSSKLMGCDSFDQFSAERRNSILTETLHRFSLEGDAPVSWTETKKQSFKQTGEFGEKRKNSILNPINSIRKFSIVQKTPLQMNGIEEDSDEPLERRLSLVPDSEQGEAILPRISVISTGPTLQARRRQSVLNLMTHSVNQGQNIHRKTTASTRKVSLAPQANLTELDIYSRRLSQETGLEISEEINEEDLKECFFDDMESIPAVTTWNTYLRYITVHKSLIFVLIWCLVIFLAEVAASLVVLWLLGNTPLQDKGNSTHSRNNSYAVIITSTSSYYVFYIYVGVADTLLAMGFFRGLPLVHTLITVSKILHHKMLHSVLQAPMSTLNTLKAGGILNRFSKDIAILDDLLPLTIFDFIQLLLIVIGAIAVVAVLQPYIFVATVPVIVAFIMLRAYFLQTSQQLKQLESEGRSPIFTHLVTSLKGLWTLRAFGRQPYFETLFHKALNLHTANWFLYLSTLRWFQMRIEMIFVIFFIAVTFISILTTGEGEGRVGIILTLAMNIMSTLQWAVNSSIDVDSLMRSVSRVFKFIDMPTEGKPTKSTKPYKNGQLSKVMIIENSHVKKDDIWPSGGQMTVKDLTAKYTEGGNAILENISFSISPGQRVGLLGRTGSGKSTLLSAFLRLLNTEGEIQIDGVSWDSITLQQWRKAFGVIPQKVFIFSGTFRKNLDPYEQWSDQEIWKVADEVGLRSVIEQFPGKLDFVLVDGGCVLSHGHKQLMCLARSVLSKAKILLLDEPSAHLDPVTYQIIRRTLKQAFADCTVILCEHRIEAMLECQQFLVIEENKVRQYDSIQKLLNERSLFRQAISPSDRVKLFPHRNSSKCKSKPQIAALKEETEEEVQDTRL
Structure (SMILES),% Activation (ΔF508-CFTR [1]; [3]) [%],EC50 (ΔF508-CFTR [1]; [4]) [nM],% Activation (ΔF508-CFTR [2]; [5]) [%],EC50 (ΔF508-CFTR [2]; [6]) [nM],EC50 (ΔF508-CFTR [1]) [nM],EC50 (ΔF508-CFTR [2]) [nM]
"CC(C)c1nn(-c2cccc(C(F)(F)F)c2)c2nc(C(=O)NS(C)(=O)=O)cc(-c3ccc(N(C)C4CCOCC4)nc3)c12 [Compound 133, N-(methanesulfonyl)-4-{6-[methyl(oxan-4-yl)amino]pyridin-3-yl}-3-(propan-2-yl)-1-[3-(trifluoromethyl)phenyl]-1H-pyrazolo[3,4-b]pyridine-6-carboxamide]",417.7,336,222.33,413,,
"CC(C)c1nn(-c2ccc(F)cc2)c2nc(C(=O)NS(C)(=O)=O)cc(N3CCC4(CCCO4)CC3)c12 [Compound 180, 1-(4-fluorophenyl)-N-(methanesulfonyl)-4-(1-oxa-8-azaspiro[4.5]decan-8-yl)-3-(propan-2-yl)-1H-pyrazolo[3,4-b]pyridine-6-carboxamide]",290.53,300,129.5,570,,
"CO[C@H]1CC[C@H](Oc2cc(C(=O)NS(C)(=O)=O)nc3c2c(C2CCC2)nn3-c2ccccc2)CC1 [Compound 212, 3-cyclobutyl-N-(methanesulfonyl)-4-[(trans-4-methoxycyclohexyl)oxy]-1-phenyl-1H-pyrazolo[3,4-b]pyridine-6-carboxamide]",290.43,324,114.63,621,,
"COS(=O)(=O)NC(=O)c1cc(N2CCC(N3CCOCC3)CC2)c2c(C3CCC3)nn(-c3ccc(F)cc3)c2n1 [Compound 606, methyl {3-cyclobutyl-1-(4-fluorophenyl)-4-[4-(morpholin-4-yl)piperidin-1-yl]-1H-pyrazolo[3,4-b]pyridine-6-carbonyl}sulfamate]",513.7,469,283.8,973,,
"CS(=O)(=O)NC(=O)c1cc(N2CCC[C@@H](CO)C2)c2c(C3CCC3)nn(-c3ccccc3)c2n1 [Compound 349, 3-cyclobutyl-4-[(3R)-3-(hydroxymethyl)piperidin-1-yl]-N-(methanesulfonyl)-1-phenyl-1H-pyrazolo[3,4-b]pyridine-6-carboxamide]",327.9,,161.7,,424,512
"COCC1CCN(c2cc(C(=O)NS(=O)(=O)N3CCC(N4CCC[C@@H]4COC)CC3)nc3c2c(C2CCC2)nn3-c2ccccc2)CC1 [Compound 395, 3-cyclobutyl-4-[4-(methoxymethyl)piperidin-1-yl]-N-{4-[(2R)-2-(methoxymethyl)pyrrolidin-1-yl]piperidine-1-sulfonyl}-1-phenyl-1H-pyrazolo[3,4-b]pyridine-6-carboxamide]",327.95,127,209.2,474,,
"CC(C)c1nn(-c2cccc(N3CC(O)C3)c2)c2nc(C(=O)NS(C)(=O)=O)cc(-c3ccc(N4CCOCC4)cc3)c12 [Compound 105, 1-[3-(3-hydroxyazetidin-1-yl)phenyl]-N-(methanesulfonyl)-4-[4-(morpholin-4-yl)phenyl]-3-(propan-2-yl)-1H-pyrazolo[3,4-b]pyridine-6-carboxamide]",457.85,699,258.1,908,,
"O=C(NS(=O)(=O)C1CCOC1)c1cc(N2CCC(CCN3CCOCC3)CC2)c2c(C3CCC3)nn(-c3ccc(F)cc3)c2n1 (centres unmarked) [Compound 452, 3-cyclobutyl-1-(4-fluorophenyl)-4-{4-[2-(morpholin-4-yl)ethyl]piperidin-1-yl}-N-(oxolane-3-sulfonyl)-1H-pyrazolo[3,4-b]pyridine-6-carboxamide]",478.25,942,239.8,408,,
"CC(C)N1CCC(c2cc(C(=O)NS(=O)(=O)N(C)C)nc3c2c(C2CCC2)nn3-c2ccc(F)cc2)CC1 [Compound 598, 3-cyclobutyl-N-(dimethylsulfamoyl)-1-(4-fluorophenyl)-4-[1-(propan-2-yl)piperidin-4-yl]-1H-pyrazolo[3,4-b]pyridine-6-carboxamide]",153.9,≥ 10000,28.03,,,
"CN(C)S(=O)(=O)NC(=O)c1cc(OCC2CCN(C3CC3)CC2)c2c(C3CCC3)nn(-c3ccc(F)cc3)c2n1 [Compound 616, 3-cyclobutyl-4-[(1-cyclopropylpiperidin-4-yl)methoxy]-N-(dimethylsulfamoyl)-1-(4-fluorophenyl)-1H-pyrazolo[3,4-b]pyridine-6-carboxamide]",341.15,294,144.05,348,,
"CS(=O)(=O)NC(=O)c1cc(N2CCC(OCC(=O)N3CCCC3)CC2)c2c(C3CCC3)nn(-c3ccccc3)c2n1 [Compound 154, 3-cyclobutyl-N-(methanesulfonyl)-4-{4-[2-oxo-2-(pyrrolidin-1-yl)ethoxy]piperidin-1-yl}-1-phenyl-1H-pyrazolo[3,4-b]pyridine-6-carboxamide]",447.85,203,275.65,533,,
"CC(C)c1nn(-c2ccc(F)cc2)c2nc(C(=O)NS(C)(=O)=O)cc(OCCC3CCOCC3)c12 [Compound 285, 1-(4-fluorophenyl)-N-(methanesulfonyl)-4-[2-(oxan-4-yl)ethoxy]-3-(propan-2-yl)-1H-pyrazolo[3,4-b]pyridine-6-carboxamide]",327.57,246,125.5,294,,
"CO[C@H]1C[C@@H](c2nn(-c3ccccc3)c3nc(C(=O)NS(C)(=O)=O)cc(-c4ccc(N5CCC(C#N)CC5)nc4)c32)C1 [Compound 194, 4-[6-(4-cyanopiperidin-1-yl)pyridin-3-yl]-N-(methanesulfonyl)-3-(cis-3-methoxycyclobutyl)-1-phenyl-1H-pyrazolo[3,4-b]pyridine-6-carboxamide]",427.45,371,213.75,745,,
"COc1ccc(-c2cc(C(=O)NS(C)(=O)=O)nc3c2c(C)nn3-c2ccccc2)cc1 [Compound 14, N-(methanesulfonyl)-4-(4-methoxyphenyl)-3-methyl-1-phenyl-1H-pyrazolo[3,4-b]pyridine-6-carboxamide]",335.6,1370,148.9,1430,,
"Cc1nn(-c2ccc(F)c(F)c2)c2nc(C(=O)NS(C)(=O)=O)cc(-c3ccc(N4CCOCC4)cc3)c12 [Compound 25, 1-(3,4-difluorophenyl)-N-(methanesulfonyl)-3-methyl-4-[4-(morpholin-4-yl)phenyl]-1H-pyrazolo[3,4-b]pyridine-6-carboxamide]",437.17,640,247.23,997,,
"Cc1nn(-c2ccccc2)c2nc(C(=O)NS(C)(=O)=O)cc(-c3ccc(N4CC(N(C)C)C4)cc3)c12 [Compound 41, 4-{4-[3-(dimethylamino)azetidin-1-yl]phenyl}-N-(methanesulfonyl)-3-methyl-1-phenyl-1H-pyrazolo[3,4-b]pyridine-6-carboxamide]",253.3,1140,52.497,817,,
"CCS(=O)(=O)NC(=O)c1cc(-c2ccc(N3CCOCC3)cc2)c2c(C)nn(-c3cccc(Cl)c3)c2n1 [Compound 66, 1-(3-chlorophenyl)-N-(ethanesulfonyl)-3-methyl-4-[4-(morpholin-4-yl)phenyl]-1H-pyrazolo[3,4-b]pyridine-6-carboxamide]",332.85,6670,142.65,1860,,
"CC(C)c1nn(-c2ccc(F)cc2)c2nc(C(=O)NS(C)(=O)=O)cc(OCCCN3CCOCC3)c12 [Compound 292, 1-(4-fluorophenyl)-N-(methanesulfonyl)-4-[3-(morpholin-4-yl)propoxy]-3-(propan-2-yl)-1H-pyrazolo[3,4-b]pyridine-6-carboxamide]",422.55,565,217.9,1060,,
"CC(C)c1nn(-c2ccc(F)cc2)c2nc(C(=O)NS(C)(=O)=O)cc(OCC3(C)CC(F)(F)C3)c12 [Compound 306, 4-[(3,3-difluoro-1-methylcyclobutyl)methoxy]-1-(4-fluorophenyl)-N-(methanesulfonyl)-3-(propan-2-yl)-1H-pyrazolo[3,4-b]pyridine-6-carboxamide]",321.1,82.4,146.7,158,,
"CC(C)c1nn(C2CCCCC2)c2nc(C(=O)NS(C)(=O)=O)cc(-c3ccc(N4CCC(F)(F)C4)nc3)c12 [Compound 64, 1-cyclohexyl-4-[6-(3,3-difluoropyrrolidin-1-yl)pyridin-3-yl]-N-(methanesulfonyl)-3-(propan-2-yl)-1H-pyrazolo[3,4-b]pyridine-6-carboxamide]",362.45,444,152.75,935,,
"CS(=O)(=O)NC(=O)c1cc(N2CCC(CF)CC2)c2c(C3CCC3)nn(-c3ccccc3)c2n1 [Compound 220, 3-cyclobutyl-4-[4-(fluoromethyl)piperidin-1-yl]-N-(methanesulfonyl)-1-phenyl-1H-pyrazolo[3,4-b]pyridine-6-carboxamide]",389.9,208,202.5,348,,
